Our source for the IC50 and remaining activity values is patent US10399948B2, “Negative allosteric modulators of metabotropic glutamate receptor 3” (Vanderbilt University, priority 2015, dated 2019).

As a reminder, the IC50 is the concentration that inhibits the measured activity by half.

The target of one assay is rat mGlu3 (Rattus norvegicus (Rat), UniProt P31422). As to the kind of experiment: mGlu3 Ca2+ flux assay. The note with it: for IC50: NAM, glutamate EC80, >10,000 = decrease without plateau, >30,000 = no measurable activity; for remaining activity at 30 µM: response at 30 μM test compound as percentage of maximal response to glutamate, read-out: rat mGlu3 Glu max (%). The class given is cell-based. As for the experimental part:
Gα15/TREx cells stably expressing rat mGlu3 were plated in black-walled, clear-bottomed, poly-D-lysine coated 384-well plates in 20 μL of assay medium (DMEM containing 10% dialyzed FBS, 20 mM HEPES, 25 ng/mL tetracycline, 100 units/mL penicillin/streptomycin plus 250 ng/mL Fungizone, and 1 mM sodium pyruvate) at a density of 15K cells/well. The cells were grown overnight at 37° C. in the presence of 5% CO2. […] Dye was removed, 20 μL of assay buffer was added, and the plate was incubated for 10 minutes at room temperature.
(§1) Ca^2+ flux was measured using the Functional Drug Screening System (FDSS7000, Hamamatsu, Japan). After establishment of a fluorescence baseline for about 3 seconds, the compounds of the present invention were added to the cells, and the response in cells was measured. 2.3 minutes later an EC20 concentration of the mGlu3 receptor agonist glutamate was added to the cells, and the response of the cells was measured for 1.9 minutes; an EC80 concentration of agonist was added and readings taken for an additional 1.7 minutes. All test compounds were dissolved and diluted to a concentration of 10 mM in 100% DMSO. Compounds were then serially diluted 1:3 in DMSO into 10 point concentration response curves, transferred to daughter plates, and further diluted into assay buffer to a 2× stock. Calcium fluorescence measures were recorded as fold over basal fluorescence; raw data was then normalized to the maximal response to glutamate.
(§2) The raw data file containing all time points was used as the data source in the analysis template. This was saved by the FDSS as a tab-delimited text file. Data were normalized using a static ratio function (F/F0) for each measurement of the total 360 values per well divided by each well's initial value. Data were then reduced to peak amplitudes (Max−Initial Min) using a time range that starts approximately 3 seconds prior to the glutamate EC80 addition and continues for approximately 90 seconds. This is sufficient time to capture the peak amplitude of the cellular calcium response. Individual amplitudes were expressed as % EMax by multiplying each amplitude by 100 and then dividing the product by the mean of the amplitudes derived from the glutamate ECMax-treated wells. EC50 values for test compounds were generated by fitting the normalized values versus the log of the test compound concentration (in mol/L) using a 4 parameter logistic equation where none of the parameters were fixed. Each of the three values collected at each concentration of test compound were weighted evenly.
(A change in cytosolic calcium serves as a functional read-out for many receptors and channels.)

Another assay addresses rat mGlu2 (Rattus norvegicus (Rat), UniProt P31421). Kind of assay: mGlu2 Ca2+ flux assay. Type of assay: cell-based. Conditions: NAM, glutamate EC80; >30,000 = no measurable activity. As for the experimental part: Gα15 HEK293 cells stably expressing rat mGlu2 were plated in black-walled, clear-bottomed, poly-D-lysine coated 384-well plates in 20 μL of assay medium (DMEM containing 10% dialyzed FBS, 20 mM HEPES, and 1 mM sodium pyruvate) at a density of 12K cells/well. The cells were grown overnight at 37° C. in the presence of 5% CO2. The next day, medium was removed and the cells incubated with 20 μL of […] Fluo-4, AM prepared as a 2.3 mM stock in DMSO and mixed in a 1:1 ratio with 10% (w/v) pluronic acid F-127 and diluted in assay buffer (Hank's balanced salt solution, 20 mM HEPES, and 2.5 mM probenecid) for 45 minutes at 37° C. Dye was removed, 20 μL of assay buffer was added, and the plate was incubated for 5 minutes at room temperature.
as §1, with “mGlu2” for “mGlu3”
as §2, with “ECMax” for “EMax”, “IC50” for “EC50”

Chain of rat mGlu2 (P31421 19-872): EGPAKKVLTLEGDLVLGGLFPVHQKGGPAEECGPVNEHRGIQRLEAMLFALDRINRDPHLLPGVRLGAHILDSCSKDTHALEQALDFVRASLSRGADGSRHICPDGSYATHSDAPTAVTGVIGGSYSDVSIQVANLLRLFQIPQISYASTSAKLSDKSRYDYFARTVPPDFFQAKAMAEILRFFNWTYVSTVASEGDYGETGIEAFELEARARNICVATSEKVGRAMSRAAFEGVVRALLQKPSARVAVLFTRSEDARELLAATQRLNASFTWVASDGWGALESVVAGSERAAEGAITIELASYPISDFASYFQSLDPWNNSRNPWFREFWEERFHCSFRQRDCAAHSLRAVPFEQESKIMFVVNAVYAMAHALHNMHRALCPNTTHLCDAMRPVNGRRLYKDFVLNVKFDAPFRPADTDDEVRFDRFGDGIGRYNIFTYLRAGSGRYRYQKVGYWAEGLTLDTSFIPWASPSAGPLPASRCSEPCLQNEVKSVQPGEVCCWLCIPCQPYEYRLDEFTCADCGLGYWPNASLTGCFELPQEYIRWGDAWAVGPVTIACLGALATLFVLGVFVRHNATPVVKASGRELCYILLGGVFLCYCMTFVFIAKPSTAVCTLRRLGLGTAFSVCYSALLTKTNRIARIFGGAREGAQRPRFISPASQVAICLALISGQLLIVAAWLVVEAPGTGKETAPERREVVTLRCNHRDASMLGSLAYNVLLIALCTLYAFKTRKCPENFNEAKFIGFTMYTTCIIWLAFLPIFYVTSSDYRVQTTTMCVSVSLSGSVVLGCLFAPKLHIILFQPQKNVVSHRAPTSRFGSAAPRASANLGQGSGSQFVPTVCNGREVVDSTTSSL
Chain of rat mGlu3 (P31422 23-879): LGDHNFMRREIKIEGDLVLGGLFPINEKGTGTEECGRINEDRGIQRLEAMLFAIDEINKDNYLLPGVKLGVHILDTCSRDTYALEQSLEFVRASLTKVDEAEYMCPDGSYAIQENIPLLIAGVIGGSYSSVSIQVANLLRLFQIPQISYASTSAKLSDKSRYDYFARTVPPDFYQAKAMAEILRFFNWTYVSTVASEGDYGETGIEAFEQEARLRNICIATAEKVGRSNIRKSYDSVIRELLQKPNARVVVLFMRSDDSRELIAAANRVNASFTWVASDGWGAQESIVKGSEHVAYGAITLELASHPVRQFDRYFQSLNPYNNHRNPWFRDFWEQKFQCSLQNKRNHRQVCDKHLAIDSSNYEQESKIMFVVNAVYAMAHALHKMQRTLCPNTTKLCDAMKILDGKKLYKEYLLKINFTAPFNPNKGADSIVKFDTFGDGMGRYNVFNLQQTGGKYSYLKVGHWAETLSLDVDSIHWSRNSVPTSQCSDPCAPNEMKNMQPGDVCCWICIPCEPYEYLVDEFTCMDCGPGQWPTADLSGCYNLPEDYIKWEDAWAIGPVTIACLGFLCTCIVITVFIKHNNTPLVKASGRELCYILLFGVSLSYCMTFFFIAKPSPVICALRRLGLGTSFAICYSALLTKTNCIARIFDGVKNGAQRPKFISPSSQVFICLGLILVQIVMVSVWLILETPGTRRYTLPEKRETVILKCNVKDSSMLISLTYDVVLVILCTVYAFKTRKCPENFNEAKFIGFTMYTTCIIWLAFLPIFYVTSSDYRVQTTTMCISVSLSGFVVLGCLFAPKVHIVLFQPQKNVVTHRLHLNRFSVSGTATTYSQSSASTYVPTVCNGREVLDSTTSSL

For `N#Cc1cncc(-n2ccc(OCCOc3ccccc3)cc2=O)c1` [Compound 26, 2-oxo-4-(2-phenoxyethoxy)-2H-[1,3′-bipyridine]-5′-carbonitrile], the figures for the IC50 against rat mGlu3 and on rat mGlu2 were 3410 nM and greater than 30 µM, respectively. For the same compound, at rat mGlu3, the remaining activity at 30 µM is -5.24%.
As for `O=c1cc(OCCOc2ccccc2)ccn1-c1cncc(F)c1` [Compound 27, 5′-fluoro-4-(2-phenoxyethoxy)-2H-[1,3′-bipyridin]-2-one], on rat mGlu3, the half-inhibitory concentration (IC50) amounted to 1870 nM and the remaining activity at 30 µM is 4.56%. Further, the IC50 at rat mGlu2 is greater than 30 µM.
As for `O=c1cc(OCCOc2ccccc2)cnn1-c1ccc(F)cc1` [Compound 29, 2-(4-Fluorophenyl)-5-(2-phenoxyethoxy)pyridazin-3(2H)-one], at rat mGlu3, the IC50 is 3870 nM and the remaining activity at 30 µM worked out at 5.86%. At rat mGlu2, this compound returned an IC50 greater than 30 µM.
For the compound `O=c1cc(OCCOc2ccc(F)cc2F)ccn1-c1ccc(F)cc1` [Compound 34, 4-(2-(2,4-difluorophenoxy)ethoxy)-1-(4-fluorophenyl)pyridin-2(1H)-one], the figures for the IC50 against rat mGlu3 and on rat mGlu2 were 1450 nM and greater than 30 µM, respectively. Also, the remaining activity at 30 µM on rat mGlu3 is 1.32%.
As for `O=c1cc(OCCOc2cc(F)ccc2F)ccn1-c1ccc(F)cc1` [Compound 35, 4-(2-(2,5-difluorophenoxy)ethoxy)-1-(4-fluorophenyl)pyridin-2(1H)-one], the IC50 is 1460 nM on rat mGlu3 and greater than 30 µM against rat mGlu2. Besides, the remaining activity at 30 µM on rat mGlu3 turned out to be 2.27%.
On the same counts, the results for `O=c1cc(OCCOc2c(F)cccc2F)ccn1-c1ccc(F)cc1` [Compound 36, 4-(2-(2,6-difluorophenoxy)ethoxy)-1-(4-fluorophenyl)pyridin-2(1H)-one] are 3180 nM, greater than 30 µM and -1.16%.
On to `O=c1cc(OCCOc2ccccc2Cl)ccn1-c1ccc(F)cc1` [Compound 37, 4-(2-(2-chlorophenoxy)ethoxy)-1-(4-fluorophenyl)pyridin-2(1H)-one], for which the IC50 against rat mGlu3 is 1840 nM; on rat mGlu2 it was greater than 30 µM. Moreover, on rat mGlu3, the remaining activity at 30 µM was found to be 2.05%.
`O=c1cc(OCCOc2cccc(Cl)c2)ccn1-c1ccc(F)cc1` [Compound 38, 4-(2-(3-chlorophenoxy)ethoxy)-1-(4-fluorophenyl)pyridin-2(1H)-one]: on rat mGlu3, inhibition was half-maximal at 980 nM (IC50) and the remaining activity at 30 µM worked out at 0.85%. This compound also had an IC50 at rat mGlu2 greater than 30 µM.
On to `O=c1cc(OCCOc2cccnc2F)ccn1-c1ccc(F)cc1` [Compound 40, 1-(4-fluorophenyl)-4-(2-((2-fluoropyridin-3-yl)oxy)ethoxy)pyridin-2(1H)-one], for which, on rat mGlu3, inhibition was half-maximal at 4740 nM (IC50) and the remaining activity at 30 µM was -4.22%. On rat mGlu2, this compound returned an IC50 greater than 30 µM.
Regarding `N#Cc1ccc(OCCOc2ccn(-c3ccc(F)cc3)c(=O)c2)cc1` [Compound 42, 4-(2-((1-(4-fluorophenyl)-2-oxo-1,2-dihydropyridin-4-yl)oxy)ethoxy)benzonitrile], the IC50 against rat mGlu3 was 1130 nM; on rat mGlu2 it was greater than 30 µM. Also, at rat mGlu3, the remaining activity at 30 µM was 0.74%.
Taken in the same sequence, the figures for `COCc1ccc(OCCOc2ccn(-c3ccc(F)cc3)c(=O)c2)cc1` [Compound 43, 1-(4-fluorophenyl)-4-(2-(4-(methoxymethyl)phenoxy)ethoxy)pyridin-2(1H)-one] were greater than 10000 nM, greater than 30 µM and 37.3%.
As to `O=c1cc(OCCOc2cccnc2)ccn1-c1ccc(F)cc1` [Compound 44, 1-(4-fluorophenyl)-4-(2-(pyridin-3-yloxy)ethoxy)pyridin-2(1H)-one], the values for the IC50 against rat mGlu3 and at rat mGlu2 were 10000 nM and greater than 30 µM, respectively. The remaining activity at 30 µM on rat mGlu3 is 1.83%.
Turning to `O=c1cc(OCCOc2cncc(Cl)c2)ccn1-c1ccc(F)cc1` [Compound 46, 4-(2-((5-chloropyridin-3-yl)oxy)ethoxy)-1-(4-fluorophenyl)pyridin-2(1H)-one], at rat mGlu3, the IC50 came to 2790 nM and the remaining activity at 30 µM came to 0.41%. Also, the IC50 on rat mGlu2 was greater than 30 µM.
